Two compounds from article PMC12091851, “Replacing a Cereblon Ligand by a DDB1 and CUL4 Associated Factor 11 (DCAF11) Recruiter Converts a Selective Histone Deacetylase 6 PROTAC into a Pan‐Degrader” (Chemmedchem, 2025) can be followed below.

Assay in all cases: HDAC enzyme inhibition assay
Holding throughout (assay type): biochemical

Assay [1] has as its target T1, HDAC6 (Homo sapiens, UniProt Q9UBN7).
T1 sequence (Q9UBN7 1-1215): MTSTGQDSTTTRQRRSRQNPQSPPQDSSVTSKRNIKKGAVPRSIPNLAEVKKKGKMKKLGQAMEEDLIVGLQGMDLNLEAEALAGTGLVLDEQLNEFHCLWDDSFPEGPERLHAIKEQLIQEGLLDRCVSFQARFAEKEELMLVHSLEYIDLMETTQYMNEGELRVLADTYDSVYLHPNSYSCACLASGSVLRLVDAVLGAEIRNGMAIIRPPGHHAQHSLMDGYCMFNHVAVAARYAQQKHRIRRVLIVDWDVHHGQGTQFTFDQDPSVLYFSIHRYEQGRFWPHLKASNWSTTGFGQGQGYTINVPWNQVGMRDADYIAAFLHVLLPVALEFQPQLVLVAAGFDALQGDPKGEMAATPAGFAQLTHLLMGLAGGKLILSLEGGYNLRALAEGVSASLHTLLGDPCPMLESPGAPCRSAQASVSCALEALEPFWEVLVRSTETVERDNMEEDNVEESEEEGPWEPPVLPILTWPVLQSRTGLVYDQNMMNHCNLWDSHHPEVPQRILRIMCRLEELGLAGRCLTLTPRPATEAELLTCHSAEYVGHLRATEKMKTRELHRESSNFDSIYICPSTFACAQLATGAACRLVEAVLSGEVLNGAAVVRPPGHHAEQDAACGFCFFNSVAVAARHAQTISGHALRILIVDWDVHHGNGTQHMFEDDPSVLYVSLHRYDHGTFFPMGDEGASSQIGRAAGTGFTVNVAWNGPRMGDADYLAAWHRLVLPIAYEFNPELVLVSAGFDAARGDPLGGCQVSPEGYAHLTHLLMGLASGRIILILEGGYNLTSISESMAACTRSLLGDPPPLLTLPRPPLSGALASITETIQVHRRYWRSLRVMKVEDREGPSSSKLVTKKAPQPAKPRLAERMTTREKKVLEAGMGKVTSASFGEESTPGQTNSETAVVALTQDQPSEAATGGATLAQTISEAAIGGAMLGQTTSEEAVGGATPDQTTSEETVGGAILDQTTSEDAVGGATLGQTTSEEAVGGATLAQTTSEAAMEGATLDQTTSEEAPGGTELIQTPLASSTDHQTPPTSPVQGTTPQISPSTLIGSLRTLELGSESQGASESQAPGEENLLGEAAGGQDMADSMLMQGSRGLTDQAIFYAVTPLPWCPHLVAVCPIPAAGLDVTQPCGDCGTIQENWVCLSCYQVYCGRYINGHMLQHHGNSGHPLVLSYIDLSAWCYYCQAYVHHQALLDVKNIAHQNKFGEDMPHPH
Further details: purchased BPS Bioscience 50006. How it is done:
(§1) Bio-Rad) to Immobilon-FL PVDF membranes (Catalog# IPFL00005, Mill ipore Merck, Burlington, MA, USA) at 1.0 A for 30 min and treated with 5% milk-powder solution for 1 h at room temperature […]
(§2) Signaling Technology) antibody solutions in 1:1000 –1:8000 dilutions at 4 °C overnight. […]
(§3) Significance testing was performed with a one -way analysis of variance (ANOVA). Dunnett’s post -hoc test was employed to obtain significance levels of each mean compared to a reference mean value.
(§4) 2.7. HDAC Enzyme Inhibition Assay […]
(§5) [4] For test compounds and controls, serial dilutions of the respective DMSO stock solution in DMSO were prepared, and 1.0 μL /well of this serial dilution were transferred […]
(§6) into OptiPlate-96 black microplates (PerkinElmer, Waltham, […], USA). A volume of 4 µL/well assay […]
(§7) BSA) was added. In the case of HDAC1, 2, and 6, a volume of 35 μL/well of the fluorogenic substrate […]
(§8) The total assay volume of 50 μL (max. 2 % DMSO) was incubated at 37 °C for 90 min. Subsequently, 50 μL /well of trypsin (0.4 mg/mL) in trypsin buffer (50 mM Tris−HCl, pH 8.0, 100 mM NaCl) was added, followed by additional 30 min of incubation at […]
(§9) OPTIMA microplate reader (BMG labtech, Ortenburg, Germany). The half maximal inhibitory concentration (IC50) was determined by plotting dose response curves and nonlinear regression with GraphPad Prism (GraphPad Software).
(§10) 2.8. MTT Cell Viability Assay […]

Assay [2] deals with HDAC1 (Homo sapiens, UniProt Q13547). Further details: purchased BPS Bioscience 50051. The procedure: as §1, §2, §3, §4, §5, §6, §7, §8, §9, §10
Chain of HDAC1 (Q13547 whole entry): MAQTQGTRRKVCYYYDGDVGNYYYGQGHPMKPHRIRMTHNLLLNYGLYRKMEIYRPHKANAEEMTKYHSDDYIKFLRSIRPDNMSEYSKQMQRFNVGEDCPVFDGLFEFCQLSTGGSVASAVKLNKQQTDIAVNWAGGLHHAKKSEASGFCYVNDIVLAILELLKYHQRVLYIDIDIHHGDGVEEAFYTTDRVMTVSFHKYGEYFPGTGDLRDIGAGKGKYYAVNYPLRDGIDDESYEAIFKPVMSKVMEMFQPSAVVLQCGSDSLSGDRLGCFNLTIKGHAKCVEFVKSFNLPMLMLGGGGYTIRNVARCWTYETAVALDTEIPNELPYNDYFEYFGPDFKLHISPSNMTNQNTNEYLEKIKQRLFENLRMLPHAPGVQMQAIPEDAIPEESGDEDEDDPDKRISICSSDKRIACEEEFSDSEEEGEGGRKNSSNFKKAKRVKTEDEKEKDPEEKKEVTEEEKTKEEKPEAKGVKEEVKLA
Assay [3] has as its target HDAC4 (Homo sapiens, UniProt P56524). More on the design: purchased BPS Bioscience 50004. How it is done:
as §1, §2
Significance testing was performed with a one -way analysis […]
compared to a reference mean value.
as §4
In vitro inhibitory activities against HDAC4 were measured using a previously published protocol with slight modifications. For test compounds and controls, serial dilutions of the respective DMSO stock solution in DMSO were prepared, and 1.0 μL /well of this serial dilution were transferred […]
as §6, §7, §8, §9
2.8. […]

Chain of HDAC4 (P56524 627-1084 limits assumed): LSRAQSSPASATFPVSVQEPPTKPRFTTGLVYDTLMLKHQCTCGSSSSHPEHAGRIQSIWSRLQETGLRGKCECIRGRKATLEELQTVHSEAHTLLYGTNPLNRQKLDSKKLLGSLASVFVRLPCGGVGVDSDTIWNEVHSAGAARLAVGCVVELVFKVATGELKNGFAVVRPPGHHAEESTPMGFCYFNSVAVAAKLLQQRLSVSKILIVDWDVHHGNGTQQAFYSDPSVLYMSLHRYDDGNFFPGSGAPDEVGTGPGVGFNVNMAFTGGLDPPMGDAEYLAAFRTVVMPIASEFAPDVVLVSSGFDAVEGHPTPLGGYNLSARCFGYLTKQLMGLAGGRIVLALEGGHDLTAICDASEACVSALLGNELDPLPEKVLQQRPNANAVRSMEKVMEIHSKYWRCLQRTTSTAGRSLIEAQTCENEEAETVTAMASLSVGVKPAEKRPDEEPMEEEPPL

Usually IC50 stands for the concentration needed to halve the response being measured. Low values mean inhibition by little substance, high ones a need for much substance. For `O=C(CCCCCCNC(=O)c1ccc(NC(=O)CCCCCCCCCCCN(C(=O)CCl)C(C(=O)NCc2ccccc2)c2ccc(Cl)c(Cl)c2)cc1)NO` (stereo not drawn) [Compound 1j], the IC50 worked out at 53 ± 1 nM in assay [1], 1030 ± 40 nM in assay [2] and 12400 ± 1500 nM in assay [3].
Regarding `O=C(CCCCCCNC(=O)c1ccc(N(C(=O)CCl)C(C(=O)NCc2ccccc2)c2ccc(Cl)c(Cl)c2)cc1)NO` (stereo not drawn) [Compound 2], the IC50 in assay [1] was found to be 7 ± 1 nM; in assay [2], 159 ± 44 nM; in assay [3] it was 3260 ± 80 nM.
